Read-outs that look alike come from different tables or passages of the source.
Tests used:
A431 (ATCC: CRL-1555) = assay: Test of cancer cell growth inhibition (SRB), A431; settings: read-out: IC50 A431
SK-Br3 (ATCC: HTB-30) = assay: Test of cancer cell growth inhibition (SRB), SK-Br3; settings: read-out: IC50 SK-Br-3
[1] = EGFR overexpressed A431, 72 hours, SRB
[2] = Erb-B2 overexpressed SK-Br3, 72 hours, SRB

IC50 (A431 (ATCC: CRL-1555); Homo sapiens, A-431, 72 h) [nM]	IC50 (SK-Br3 (ATCC: HTB-30); Homo sapiens, SK-BR-3, 72 h) [nM]	IC50 (A431 (ATCC: CRL-1555); [1]) [nM]	IC50 (SK-Br3 (ATCC: HTB-30); [2]) [nM]	Structure (SMILES)
408	359			CC(C)(C)OC(=O)NCC(=O)Nc1ccc2ncnc(Nc3ccc(OCc4cccc(F)c4)c(Cl)c3)c2c1 [Example 1-5, ({4-[3-chloro-4-(3-fluoro-benzyloxy)-phenylamino]-quinazolin-6-ylcarbamoyl}-methyl)-carbamic acid t-butylester]
		740	261	COCC(=O)N[C@@H](CCSC)C(=O)Nc1ccc2ncnc(Nc3ccc(OCc4cccc(F)c4)c(Cl)c3)c2c1 [Example 7-2, (2S)—N-{4-[3-chloro-4-(3-fluoro-benzyloxy)-phenylamino]-quinazolin-6-yl}-2-(2-methoxy-acetylamino)-4-methanesulfanyl-butyramide]
		308	190	CSCC[C@H](NC(=O)CS(C)(=O)=O)C(=O)Nc1ccc2ncnc(Nc3ccc(OCc4cccc(F)c4)c(Cl)c3)c2c1 [Example 8, (2S)—N-{4-[3-chloro-4-(3-fluoro-benzyloxy)-phenylamino]-quinazolin-6-yl}-2-(2-methanesulfonyl-acetamino)-4-methanesulfanyl-butyramide]
252	113			COCC(=O)N[C@H](C(=O)Nc1ccc2ncnc(Nc3ccc(OCc4cccc(F)c4)c(Cl)c3)c2c1)c1ccccc1 [Example 11, (2S)—N-{4-[3-chloro-4-(3-fluoro-benzyloxy)-phenylamino]-quinazolin-6-yl}-2-(2-methoxy-acetylamino)-2-phenyl-acetamide]
713	182			CS(=O)(=O)CC(=O)N1CCCC1C(=O)Nc1ccc2ncnc(Nc3ccc(OCc4cccc(F)c4)c(Cl)c3)c2c1 (centres unmarked) [Example 17, 1-(2-methanesulfonyl-acetyl)-pyrrolidine-2-carboxylic acid {4-[3-chloro-4-(3-fluoro-benzyloxy)-phenylamino]-quinazolin-6-yl}-amide]
335	427			CC(C)(C)OC(=O)NCCC(=O)Nc1ccc2ncnc(Nc3ccc(OCc4cccc(F)c4)c(Cl)c3)c2c1 [Example 19, (2-{4-[3-chloro-4-(3-fluoro-benzyloxy)-phenylamino]-quinazolin-6-ylcarbamoyl}-ethyl)-carbamic acid t-butylester]
		316	359	O=C(CCc1ccccc1)NCCC(=O)Nc1ccc2ncnc(Nc3ccc(OCc4cccc(F)c4)c(Cl)c3)c2c1 [Example 23, 3-phenyl-propionylic acid (2-{4-[3-chloro-4-(3-fluoro-benzyloxy)-phenylamino]-quinazolin-6-ylcarbamoyl}-ethyl)-amide]
801	872			O=C(C=Cc1ccccc1)NCCC(=O)Nc1ccc2ncnc(Nc3ccc(OCc4cccc(F)c4)c(Cl)c3)c2c1 [Example 26, N-(2-{4-[3-chloro-4-(3-fluoro-benzyloxy)-phenylamino]-quinazolin-6-ylcarbamoyl}-ethyl)-3-phenyl-acrylamide]
312	163			Cc1cc(C(=O)NCCC(=O)Nc2ccc3ncnc(Nc4ccc(OCc5cccc(F)c5)c(Cl)c4)c3c2)on1 [Example 32, 3-methyl-isoxazol-5-carboxylic acid (2-{4-[3-chloro-4-(3-fluoro-benzyloxy)-phenylamino]-quinazolin-6-ylcarbamoyl}-ethyl)-amide]
348	131			O=C(CCNC(=O)c1ccoc1)Nc1ccc2ncnc(Nc3ccc(OCc4cccc(F)c4)c(Cl)c3)c2c1 [Example 33, furan-3-carboxylic acid (2-{4-[3-chloro-4-(3-fluoro-benzyloxy)-phenylamino]-quinazolin-6-ylcarbamoyl}-ethyl)-amide]
896	141			O=C(CCNC(=O)c1cn[nH]c1)Nc1ccc2ncnc(Nc3ccc(OCc4cccc(F)c4)c(Cl)c3)c2c1 [Example 34, 1H-pyrazol-4-carboxylic acid (2-{4-[3-chloro-4-(3-fluoro-benzyloxy)-phenylamino]-quinazolin-6-ylcarbamoyl}-ethyl)-amide]
137	160			O=C(CCNC(=O)C1CC1)Nc1ccc2ncnc(Nc3ccc(OCc4cccc(F)c4)c(Cl)c3)c2c1 [Example 37, cyclopropylcarboxylic acid (2-{4-[3-chloro-4-(3-fluoro-benzyloxy)-phenylamino]-quinazolin-6-ylcarbamoyl}-ethyl)-amide]
936	172			CC(CNC(=O)OC(C)(C)C)C(=O)Nc1ccc2ncnc(Nc3ccc(OCc4cccc(F)c4)c(Cl)c3)c2c1 (centres unmarked) [Example 41, (2-{4-[3-chloro-4-(3-fluoro-benzyloxy)-phenylamino]-quinazolin-6-ylcarbamoyl}-propyl)-carbamic acid t-butylester]
390	115			CC(CNC(=O)CS(C)(=O)=O)C(=O)Nc1ccc2ncnc(Nc3ccc(OCc4cccc(F)c4)c(Cl)c3)c2c1 (centres unmarked) [Example 43, N-{4-[3-chloro-4-(3-fluoro-benzyloxy)-phenylamino]-quinazolin-6-yl}-3-(2-methanesulfonyl-acetylamino)-2-methyl-propionamide]
828	131			COCC(=O)Nc1ccsc1C(=O)Nc1ccc2ncnc(Nc3ccc(OCc4cccc(F)c4)c(Cl)c3)c2c1 [Example 48, 3-(2-methoxy-acetylamino)-thiophene-2-carboxylic acid {4-[3-chloro-4-(3-fluoro-benzyloxy)-phenylamino]-quinazolin-6-yl}-amide]
845	99			Cc1ccc(Oc2ccc(Nc3ncnc4ccc(NC(=O)CCNC(=O)CS(C)(=O)=O)cc34)cc2C)cn1 [Example 50-2, 3-(2-methanesulfonyl-acetylamino)-N-{4-[3-methyl-4-(6-methyl-pyridin-3-yloxy)-phenylamino]-quinazolin-6-yl}-propionamide]
124	258			CS(=O)(=O)CC(=O)NCCC(=O)Nc1ccc2ncnc(Nc3ccc(F)c(Cl)c3)c2c1 [Example 53-2, N-[4-(3-chloro-4-fluoro-phenylamino)-quinazolin-6-yl]-3-(2-methanesulfonyl-acetylamino)-propionamide]
		613	51	CN(C)CC=CC(=O)NCCC(=O)Nc1ccc2ncnc(Nc3ccc(OCc4cccc(F)c4)c(Cl)c3)c2c1 [Example 56, 4-dimethylamino-but-2-enonylic acid (2-{4-[3-chloro-4-(3-fluoro-benzyloxy)-phenylamino]-quinazolin-6-ylcarbamoyl}-ethyl)-amide]
		625	43	O=C(C=CCN1CCOCC1)NCCC(=O)Nc1ccc2ncnc(Nc3ccc(OCc4cccc(F)c4)c(Cl)c3)c2c1 [Example 57, 4-morpholin-4-yl-but-2-enonylic acid (2-{4-[3-chloro-4-(3-fluoro-benzyloxy)-phenylamino]-quinazolin-6-ylcarbamoyl}-ethyl)-amide]
698	212			CN1CCN(CC(=O)NCCC(=O)Nc2ccc3ncnc(Nc4ccc(OCc5cccc(F)c5)c(Cl)c4)c3c2)CC1 [Example 64, N-{4-[3-chloro-4-(3-fluoro-benzyloxy)-phenylamino]-quinazolin-6-yl}-3-[2-(4-methyl-piperazin-1-yl)-acetylamino]-propionamide]
732	62			CS(=O)(=O)CC(=O)NCCCC(=O)Nc1ccc2ncnc(Nc3ccc(OCc4cccc(F)c4)c(Cl)c3)c2c1 [Example 88, N-{4-[3-chloro-4-(3-fluoro-benzyloxy)-phenylamino]-quinazolin-6-yl}-4-(2-methanesulfonyl-acetylamino)-butyramide]
423	628			O=C(CCCNC(=O)c1ccccc1)Nc1ccc2ncnc(Nc3ccc(OCc4cccc(F)c4)c(Cl)c3)c2c1 [Example 90, N-(3-{4-[3-chloro-4-(3-fluoro-benzyloxy)-phenylamino]-quinazolin-6-ylcarbamoyl}-propyl)-benzamide]
603	445			CCOC(=O)C(=O)NCCCC(=O)Nc1ccc2ncnc(Nc3ccc(OCc4cccc(F)c4)c(Cl)c3)c2c1 [Example 91, N-(3-{4-[3-chloro-4-(3-fluoro-benzyloxy)-phenylamino]-quinazolin-6-ylcarbamoyl}-propyl)-oxalamic acid ethylester]
293	80			O=C(CCCNC(=O)C1CC1)Nc1ccc2ncnc(Nc3ccc(OCc4cccc(F)c4)c(Cl)c3)c2c1 [Example 92, cyclopropylcarboxylic acid (3-{4-[3-chloro-4-(3-fluoro-benzyloxy)-phenylamino]-quinazolin-6-ylcarbamoyl}-propyl)-amide]
245	70			O=C(CCCNC(=O)c1ccoc1)Nc1ccc2ncnc(Nc3ccc(OCc4cccc(F)c4)c(Cl)c3)c2c1 [Example 94, furan-3-carboxylic acid (3-{4-[3-chloro-4-(3-fluoro-benzyloxy)-phenylamino]-quinazolin-6-ylcarbamoyl}-propyl)-amide]
994	331			O=C(CCCNC(=O)c1cn[nH]c1)Nc1ccc2ncnc(Nc3ccc(OCc4cccc(F)c4)c(Cl)c3)c2c1 [Example 95, 1H-pyrazol-4-carboxylic acid (3-{4-[3-chloro-4-(3-fluoro-benzyloxy)-phenylamino]-quinazolin-6-ylcarbamoyl}-propyl)-amide]
79	184			C=CC(=O)NCCCC(=O)Nc1ccc2ncnc(Nc3ccc(F)c(Cl)c3)c2c1 [Example 98, 4-acryloylamino-N-[4-(3-chloro-4-fluoro-phenylamino)-quinazolin-6-yl]-butyramide]
359	48			COCCNCC(=O)NCCCC(=O)Nc1ccc2ncnc(Nc3ccc(OCc4cccc(F)c4)c(Cl)c3)c2c1 [Example 106, N-{4-[3-chloro-4-(3-fluoro-benzyloxy)-phenylamino]-quinazolin-6-yl}-4-[2-(2-methoxy-ethylamino)-acetylamino]-butyramide]
